Square brackets hold non-standard residues; d marks the D form. Peptide text beside a SMILES is read from it. * marks the point of attachment. Trt = c1ccc(C(c2ccccc2)(c2ccccc2)*)cc1; Boc = CC(C)(C)OC(=O)*
Experiments:
[1] = test system: pepper phytophthora blight (Phytopthora capsici); experiment: Suppression of pepper phytophthora blight on leaves; format: in vivo; conditions: 0.1 mM
[2] = test system: tobacco bacterial rot (Pectobacterium carotovorum); experiment: Suppression of tobacco bacterial rot; format: in vivo, Pectobacterium carotovorum SCC1
Outline: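 Test compounds at 1, 10 and 100 ppm (from 20% methanol stock) were applied to tobacco leaves; 7 days later plants were sprayed with Pectobacterium carotovorum SCC1 at 10^8 cfu/mL and kept 3 days at 30° C. Lesion area scored visually as 0–100%.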

[3] = test system: GUS gene induced by PR-1α disease-resistance promoter; experiment: PR-1a GUS activation on tobacco leaves (MUG fluorescence); format: in vivo, tobacco (Xanth-nc); conditions: tobacco leaf injection, after three days
Description: After the tobacco (Xanth-nc) bound with GUS gene induced by PR-1α disease-resistance promoter was grown for 3 weeks, 100 μL of the diluted solution of Compound 74 was injected to second leaves with a syringe. After three days, the surrounding leaves were collected in an internal diameter size of 5 mm with a cork borer, the samples thus obtained were added to a 1.5 mL of an eppendorf tube, and 20 μL of GUS extraction buffer solution was further added, ground, and then centrifuged at 8000 G for 3 minutes to obtain supernatant. The same amount of 2 mM MUG (4-methyl umbellifryl-B-glucuronide) solution was added, reacted at 37° C. for 1 hour, and then 960 μL of stop buffer solution (0.2 M, Na2CO3 solution) was added to be 1 mL. Since then, the fluorescence was measured with a TKO 100 fluorometer (Hoefoer Scientific Instruments, USA). At this time, the fluorescence amount was calibrated using a MU (4-methyl umbellyferon) as a standard reagent, and the GUS activity was calculated using MU-mM/sample−10 mg/time. The results thus obtained are listed in the following Table 2 and illustrated in FIG. 2.

[4] = test system: anthracnose germ (Colletotrichum orbiculare); experiment: Suppression of anthracnose on cucumber leaves by seed treatment; format: in vivo; conditions: seeds treated at 100 ppm for 2 hours, spores sprayed after 3 weeks, read after 7 days, FIG. 4
Description: Compound 61 or Compound 74 were deposited on the seeds of cucumbers in the concentration of 100 ppm for 2 hours, and after 3 weeks, the spores of anthracnose germ (Colletotrichum orbiculare) were sprayed in the concentration of 10^5 spore/mL thereto, and then, after 7 days, the disease outbreak was investigated. The results thus obtained are illustrated in the photographs of FIG. 4.

[5] = test system: pepper phytophthora blight (Phytopthora capsici); experiment: Suppression of pepper phytophthora blight on leaves; format: in vivo; conditions: for Lesion outbreak rate: pepper leaves
Description: (§1) The peppers were raised in the same method as Example 3, and then, the test compounds were dissolved in 20% methanol to make a stock solution, and a stock was diluted to the concentrations of 0.1, 1.0, and 10.0 ppm. The test solutions were sprayed on the leaves or drench-treated on the leaves. After 7 days, the pathogen of plant bacterial rot (Pectobacterium carotovorum SCC1) was cultured in a TSA medium for 27 hours, and then, wetted on an 8 mm diameter paper disc in the concentration of 10^8 cfu/mL. The paper disc was located in the center of the leaves that were cut roundly, and then, after about 7 days, the lesion area was measured. In the case of phytophthora, the potato agar medium cultured with the phytophthora (Phytophthora capsici) was cut in the internal diameter size of 5 mm with a cork borer, and then inoculated to the leaves. After 7 days, the lesion area was observed. In the case of a bacterial rot, when Compounds 6, 89, 93, and 95 were sprayed on the pepper leaves, the bacterial rot was not found in the concentration of 1 or 10 ppm as compared with the non-treated group. […] The Suppression of lesion formation on the leaves when these compounds were drench-treated to the roots can be explained as it was resulted from that systemic disease resistance was induced in the whole plant. These test results are illustrated in the photographs of FIGS. 5 to 9.

[6] = test system: PR1, PR4, PR10, beta-1,3-glucanase, chitinase and peroxidase genes; experiment: Expression of defense genes in pepper plant (RT-PCR) after compound treatment and pathogen inoculation; format: in vivo; conditions: pepper seedling, compound treated and then P. carotovora or P. capsici treated, FIG. 1
Source text: In order to testify the disease resistance expression in the case of treating the dipeptide derivative of the present invention to the seeding of pepper, PR-1, beta-1,3-glucanase, chitinase, PR4, peroxidase, and PR10 primer, and the seedling of pepper were used. The seedling of pepper was raised in a greenhouse for 4 weeks, Compounds were sprayed thereto in various concentrations, and then, after three or one week, phytophthora (Phytophthora capcisi) and the pathogen of a bacterial rot (Pectobacterium carotovorum) were respectively inoculated.
Since then, after 12, 24, and 48 hours, the respective pepper leaves were collected in an amount of 1 g, and then, stored at an ultralow temperature-room at […]. The stored plant leaves were pulverized along with liquid nitrogen, and then, […] was extracted by using a RNA extraction kit (Easy-Spin™IIP Total RNA Extraction Kit, Intron Biotechnology, Korea) and Ex Taq polymerase by Kishimoto et al. (2005) (Takara Biomedicals, Otsu, Japan). For amplification, 0.1 μg of cDNA, 10 pMol of each of forward and reverse primers, 250 nM of dNTPs, and 0.5 U of Ex Taq polymerase were added to 20 μl, of a buffer solution. PCR was performed at 94C and 58C in a thermal cycler (PTC-100, USA), and the products by PCR were analyzed under the condition of 1% agarose gel (in 0.5×TAE buffer) (80 V, 60 min). All the RT-PCR tests were repeated twice. […]

[7] = test system: Phytophthora capsici; experiment: Suppression of phytophthora blight in pepper roots and leaves after drench inoculation; format: in vivo; conditions: sprayed on leaves, roots drench-inoculated after 1 week, observed 7 days, FIG. 10
Source text: The peppers were raised in the same method as Example 3, Compound 85 was sprayed on the leaves, and then after 1 week, the Phytophthora capsici swarm suspension was drench-inoculated. While observing for 7 days, the lesion formation on the leaves and roots were investigated. […] The test results of Compound 85 on suppressing the outbreak of phytophthora blight are illustrated in FIG. 10.

[8] = test system: plant bacterial rot (Pectobacterium carotovorum SCC1); experiment: Suppression of bacterial rot on pepper leaves (paper disc on cut leaves); format: in vivo; conditions: sprayed on the pepper leaves, 1 or 10 ppm
Description: as §1

Row | Structure (SMILES) | Lesion outbreak rate ([2]; Table 5, tobacco, 10 ppm) [%] | Lesion outbreak rate ([2]; Table 5, tobacco, 100 ppm) [%] | Lesion outbreak rate ([2]; Table 6, tobacco, 1 ppm) [%] | Lesion outbreak rate ([2]; Table 6, tobacco, 10 ppm) [%] | Lesion outbreak rate ([2]; Table 6, tobacco, 100 ppm) [%] | Anthracnose on the leaves of cucumber as compared with the non-treated group [4] | Lesion outbreak rate ([5]; 0.1 ppm) [area %] | Lesion outbreak rate ([5]; 1.0 ppm) [area %] | Expression of the genes of PR1, PR4, PR10, beta-1,3-glucanase, chitonase and peroxidase [6] | other results
1 | CSC(=O)c1cccc2nnsc12 [BTH, benzo-1,2,3-thiadiazole-7-carbothio acid S-methyl ester, reference compound] | 25 | 25 | 100 | 100 | 100 |  |  |  |  | Lesion outbreak rate [1]: 17 area %; Lesion outbreak rate ([2]; Table 3, tobacco, 1 ppm): 90%; Lesion outbreak rate ([2]; Table 3, tobacco, 10 ppm): 90%; Lesion outbreak rate ([2]; Table 3, tobacco, 100 ppm): 90%; Lesion outbreak rate ([2]; Table 4, tobacco, 1 ppm): 88%; Lesion outbreak rate ([2]; Table 4, tobacco, 10 ppm): 88%; Lesion outbreak rate ([2]; Table 4, tobacco, 100 ppm): 88%; PR1a GUS expression ([3]; 0.1 mM): 324,000 nM MU/10 mg FW/1 hr
2 | COC(=O)[C@@H]1CCCN1C(=O)[C@H](CSC(c1ccccc1)(c1ccccc1)c1ccccc1)NC(=O)OC(C)(C)C [Compound 61] (Boc-Cys(Trt)-Pro-OMe) | 20 | 16 |  |  |  | hardly found |  |  |  | 
3 | COC(=O)[C@H]1CCCN1C(=O)[C@H](CSC(c1ccccc1)(c1ccccc1)c1ccccc1)NC(=O)OC(C)(C)C [Compound 74] (Boc-Cys(Trt)-[dP]-OMe) |  |  | 25 | 34 | 22 | hardly found |  |  |  | PR1a GUS expression ([3]; 0.1 ppm): 7,800 nM MU/10 mg FW/1 hr; PR1a GUS expression ([3]; 1.0 ppm): 15,000 nM MU/10 mg FW/1 hr; PR1a GUS expression ([3]; 10.0 ppm): 420,000 nM MU/10 mg FW/1 hr; PR1a GUS expression ([3]; 100.0 ppm): 860,000 nM MU/10 mg FW/1 hr
4 | CCOC(=O)C(C)NC(=O)C(NC(=O)OC(C)(C)C)C(C)CC (stereo not shown) [Compound 80] |  |  |  |  |  |  | 14 | 8.9 | strongly expressed | 
5 | CCC(C)C(NC(=O)OC(C)(C)C)C(=O)N1CCCC1C(=O)OC (stereo not drawn) [Compound 85] (Boc-Ile-Pro-OMe; configuration not given here) |  |  |  |  |  |  | 24 | 15 |  | Phytophthora blight (lesion formation) on the leaves and roots as compared with the control group [7]: significantly suppressed
6 | COC(=O)[C@H](Cc1ccccc1)NC(=O)[C@@H](N)CC(=O)O [Compound 89] (H-Asp-Phe-OMe) |  |  |  |  |  |  | 9.3 | 2.3 | strongly expressed | Effect on suppressing the outbreak of pepper phytophthora blight or bacterial rot as compared with the non-treated control group ([5]; directly sprayed to the leaves, phytophthora blight or bacterial rot): excellent; Lesion formation, pepper phytophthora test ([5]; drench-treated, 1.0 or 10.0 ppm): no the lesion formations; Effect on suppression of the outbreak of pepper phytophthora blight as compared with the control drug BTH ([5]; in vivo): excellent effect; Bacterial rot on pepper leaves as compared with the non-treated group [8]: not found
